Results: patent US4242261A, “Production of methylene-cycloamines” (A. H. Robins Company, Inc., priority 1979, dated 1980)
Where “and” joins values, the source holds several entries; their conditions need not be identical. Equal entries are not always repeated. Where two headings read alike, the source gives them in different places.

Test system: Tetrabenazine-Induced Ptosis
Assay: Blockade of Tetrabenazine-Induced Ptosis in Mice (antidepressant activity)
Format: in vivo, mice (ICR-DUB strain)
Details: female mice; for ED50: Mus musculus
Procedure: Thirty minutes later the presence or absence of complete eyelid closure (ptosis) is assessed in each animal. For compounds which produced blockage of ptosis in all animals, and ED50 value is obtained using a minimum of three geometrically spaced dosages with five mice/dose.

[1] = ip, read-out: ED50 (95% confidence limits), IP, 30 min before tetrabenazine 32 mg/kg IP, Table 1 reference agents, probit analysis
[2] = IP, 30 min before tetrabenazine 32 mg/kg IP, test compounds in text, read-out: ED50 (confidence limits)

Row | Compound | ED50 [1] | ED50 [2] | ED50 (95% confidence limits) (IP, 30 min before tetrabenazine 32 mg/kg IP, Table 1 reference agents, probit analysis)
1 | CCOc1ccccc1OCC1CNCCO1 (centres unmarked) [viloxazine] | 1.5 mg/kg | – | –
2 | CN1CC(=C(c2ccccc2)c2ccccc2)C1 [1-methyl-3-diphenylmethyleneazetidine] | – | 1.48 mg/kg | –
3 | CN(C)CCCN1c2ccccc2CCc2ccccc21 [imipramine] | 0.3 mg/kg | – | 0.4 (0.2-0.9) mg/kg and 0.5 (0.2-1.2) mg/kg
4 | CC(C)N1CC(=C(c2ccccc2)c2ccccc2)C1.O=C(O)C(=O)O [1-isopropyl-3-diphenylmethyleneazetidine oxalate] | – | 2.18 mg/kg | –
